# From patent US8633188B2, “Aminodihydrothiazine derivatives” (Shionogi & Co., Ltd., priority 2005, dated 2014)
# Target: recombinant human BACE-1 protein (Homo sapiens (Human), UniProt P56817)
# Assay: Measurement of inhibition of β-secretase activity (fluorescence-quenched peptide substrate, time-resolved fluorescence)
# Format: biochemical
# Conditions: recombinant human BACE-1 7.4 nM, substrate peptide 18 nM, pH 5.0, 3 h at 30° C.; same test as table 170
# Description: Zero point five μL of the test compounds (dissolved in N,N′-dimethylsulfoxide) were incubated with 48.5 μL of the fluorescence-quenched peptide substrate solution (Biotin-XSEVNLDAEFRHDSGC-Eu: X=εe-amino-n-capronic acid,Eu=Europium cryptate) and 1 μL of recombinant human BACE-1 protein (R&D systems) for 3 h at 30° C. in the 96 well half-area plate (black color plate,Costar). The substrate peptide was synthesized by reacting with Biotin-XSEVNLDAEFRHDSGC (Peptide Institute) and Cryptate TBPCOOH mono SMP (CIS bio international). […] The enzymatic reaction was performed in sodium acetate buffer (50 mM sodium acetate (pH 5.0), 0.008% Triton X-100). After the reaction, a 50 μL of 8.0 μg/mL Streptavidin-XL665 (CIS bio international) dissolved in phosphate buffer (150 mM K2HPO4—KH2PO4 (pH 7.0), 0.008% Triton X-100, 0.8 M KF) was add to each well and incubated for 1 h at 30° C.
# Chain of recombinant human BACE-1 protein (P56817 46-501): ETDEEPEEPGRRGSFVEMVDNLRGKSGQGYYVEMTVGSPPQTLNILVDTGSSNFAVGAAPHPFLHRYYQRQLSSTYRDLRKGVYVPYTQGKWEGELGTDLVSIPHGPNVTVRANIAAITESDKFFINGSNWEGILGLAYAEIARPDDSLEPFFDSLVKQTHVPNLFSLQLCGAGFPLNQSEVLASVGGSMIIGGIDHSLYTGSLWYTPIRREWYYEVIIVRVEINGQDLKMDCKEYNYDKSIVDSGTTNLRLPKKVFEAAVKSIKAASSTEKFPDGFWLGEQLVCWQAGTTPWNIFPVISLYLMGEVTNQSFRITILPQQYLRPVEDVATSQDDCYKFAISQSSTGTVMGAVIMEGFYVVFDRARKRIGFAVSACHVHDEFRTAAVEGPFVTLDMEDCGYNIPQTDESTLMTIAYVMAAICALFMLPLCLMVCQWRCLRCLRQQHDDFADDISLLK
row,IC50,SMILES
1,< 100 µM,CC1(c2cccc(NC(=O)/C=C/c3cccc(F)c3)c2)CCSC(N)=N1 (stereo not drawn) [Compound 36]
2,< 100 µM,CC1(c2cccc(NC(=O)c3ncc(Br)cn3)c2)CCSC(N)=N1 (stereo not drawn) [Compound 900]
3,< 100 µM,CC1(c2cccc(CCC(=O)Nc3ccccc3)c2)CCSC(N)=N1 (stereo not drawn) [Compound 732]
4,< 100 µM,CC1(c2cc(NC(=O)c3ccc(Br)cc3)cc(S(C)(=O)=O)c2)CCSC(N)=N1 (stereo not drawn) [Compound 71]
5,< 100 µM,CC1(c2cc(NC(=O)c3ccc(Cl)cc3)cc(S(C)(=O)=O)c2)CCSC(N)=N1 (stereo not drawn) [Compound 30]
6,< 100 µM,CC1(c2cccc(NC(=O)c3ccnnc3)c2)CCSC(N)=N1 (stereo not drawn) [Compound 1274]

# Test system: not given
# Assay: not given
# Conditions: not given
row,melting point,SMILES
1,205 to 207 °C,CC1(c2cccc(NC(=O)c3ncc(Br)cn3)c2)CCSC(N)=N1 (stereo not drawn) [Compound 900]
2,194 to 195 °C,CC1(c2ccccc2)CCOC(N)=N1.Cl (stereo not drawn)
3,181 to 183 °C,CC1(c2cccc(NC(=O)c3ccc(C4CC4)cn3)c2)CCSC(N)=N1 (stereo not drawn) [Compound 738]
